Assay results: ChEMBL document CHEMBL3588812, “Thiophene and benzodioxole appended thiazolyl-pyrazoline compounds: Microwave assisted synthesis, antimicrobial and molecular docking studies” (2015)
The source made the active and inactive calls. The calls are words filed in the database; no cut-off is given here.

Key:
[1] = tested on: Salmonella typhimurium; test: Antimicrobial activity against Salmonella typhimurium MTCC 1251 assessed as inhibition of visual microbial growth incubated for 24 hrs at 37 degC; type: functional, Salmonella enterica subsp. enterica serovar Typhimurium; settings: Salmonella enterica, MTCC 1251, 24 h
[2] = tested on: Klebsiella pneumoniae; test: Antimicrobial activity against Klebsiella pneumoniae MTCC 109 assessed as inhibition of visual microbial growth incubated for 24 hrs at 37 degC; type: functional; settings: MTCC 109, 24 h
[3] = tested on: Staphylococcus aureus; test: Antimicrobial activity against Staphylococcus aureus MTCC 96 assessed as inhibition of visual microbial growth incubated for 24 hrs at 37 degC; type: functional; settings: MTCC 96, 24 h
[4] = tested on: Candida albicans; test: Antimicrobial activity against Candida albicans MTCC 227 assessed as inhibition of visual microbial growth incubated for 48 to 72 hrs at 28 degC; type: functional
[5] = tested on: Staphylococcus aureus; test: Antimicrobial activity against methicillin-resistant Staphylococcus aureus assessed as inhibition of visual microbial growth incubated for 24 hrs at 37 degC; type: functional
[6] = tested on: Malassezia pachydermatis; test: Antimicrobial activity against Malassezia pachydermatis assessed as inhibition of visual microbial growth incubated for 48 to 72 hrs at 28 degC; type: functional
[7] = tested on: Shigella flexneri; test: Antimicrobial activity against Shigella flexneri MTCC 1457 assessed as inhibition of visual microbial growth incubated for 24 hrs at 37 degC; type: functional
[8] = tested on: Micrococcus luteus; test: Antimicrobial activity against Micrococcus luteus MTCC 106 assessed as inhibition of visual microbial growth incubated for 24 hrs at 37 degC; type: functional; settings: MTCC 106, 24 h
[9] = tested on: Proteus vulgaris; test: Antimicrobial activity against Proteus vulgaris MTCC 1771 assessed as inhibition of visual microbial growth incubated for 24 hrs at 37 degC; type: functional
[10] = tested on: Klebsiella aerogenes; test: Antimicrobial activity against Enterobacter aerogenes MTCC 111 assessed as inhibition of visual microbial growth incubated for 24 hrs at 37 degC; type: functional

Molecule	MIC [1] [µg/mL]	MIC [2] [µg/mL]	MIC [3] [µg/mL]	MIC [4] [µg/mL]	MIC [5]	MIC [6] [µg/mL]	MIC ([7]; MTCC 1457, 24 h) [µg/mL]	MIC [8] [µg/mL]	MIC ([9]; MTCC 1771, 24 h) [µg/mL]	MIC ([10]; MTCC 111, 24 h) [µg/mL]	MIC [9]	MIC [7]	MIC [10]
N#Cc1ccc(-c2csc(N3N=C(c4cccs4)CC3c3cc4c(cc3Br)OCO4)n2)cc1 (stereo not given)	125	125	62.5	125	125 µg/mL	125	125	62.5	62.5	125			
GENTAMICIN											32 µg/mL		
O=[N+]([O-])c1ccc(-c2csc(N3N=C(c4cccs4)CC3c3ccc4c(c3)OCO4)n2)cc1 (stereo not given)	500	500	500	250	inactive	500	500	250		500	inactive		
Fc1ccccc1-c1csc(N2N=C(c3cccs3)CC2c2cc3c(cc2Br)OCO3)n1 (stereo not given)	125	250	250	125	250 µg/mL	500	250	125	500	250			
CN[C@@H]1[C@H](O[C@H]2[C@H](O[C@H]3[C@H](O)[C@@H](O)[C@H](N=C(N)N)[C@@H](O)[C@@H]3N=C(N)N)O[C@@H](C)[C@]2(O)C=O)O[C@@H](CO)[C@H](O)[C@H]1O [STREPTOMYCIN]	30	6.25	6.25		6.25 µg/mL		6.25	6.25		25			
Fc1cc(Cl)ccc1-c1csc(N2N=C(c3cccs3)CC2c2cc3c(cc2Br)OCO3)n1 (stereo not given)	31.2	62.5	125	62.5	62.5 µg/mL	125	62.5	125	62.5	125			
CC(=O)N1CCN(c2ccc(OCC3COC(Cn4ccnc4)(c4ccc(Cl)cc4Cl)O3)cc2)CC1 (stereo not given) [KETOCONAZOLE]				25									
N#Cc1cccc(-c2csc(N3N=C(c4cccs4)CC3c3ccc4c(c3)OCO4)n2)c1 (stereo not given)	62.5	62.5	31.2	125	62.5 µg/mL	250	125	31.2	250	125			
O=[N+]([O-])c1ccc(-c2csc(N3N=C(c4cccs4)CC3c3cc4c(cc3Br)OCO4)n2)cc1 (stereo not given)	62.5	250	250	125	62.5 µg/mL	500	250	125	125	250			
OC(Cn1cncn1)(Cn1cncn1)c1ccc(F)cc1F [FLUCONAZOLE]						24							
N#Cc1cccc(-c2csc(N3N=C(c4cccs4)CC3c3cc4c(cc3Br)OCO4)n2)c1 (stereo not given)	31.2	62.5	31.2	62.5	62.5 µg/mL	125	62.5	31.2	31.2	62.5			
c1ccc(-c2csc(N3N=C(c4cccs4)CC3c3ccc4c(c3)OCO4)n2)cc1 (stereo not given)	250	500	500	250	500 µg/mL	500	500	250	500	250			
Clc1ccc(-c2csc(N3N=C(c4cccs4)CC3c3cc4c(cc3Br)OCO4)n2)cc1 (stereo not given)	62.5	31.2	125	125	62.5 µg/mL	125	125	31.2	250	125			
Fc1cc(-c2csc(N3N=C(c4cccs4)CC3c3cc4c(cc3Br)OCO4)n2)ccc1Cl (stereo not given)	125	125	125	500	250 µg/mL	500	125	125	125	250			
Brc1cc2c(cc1C1CC(c3cccs3)=NN1c1nc(-c3ccccc3)cs1)OCO2 (stereo not given)	125	250	125	125	250 µg/mL	125	250	125	62.5	62.5			
Clc1ccc(-c2csc(N3N=C(c4cccs4)CC3c3ccc4c(c3)OCO4)n2)cc1 (stereo not given)	250	62.5	125	500	250 µg/mL	500	250	250	125	250			
Fc1cc(Cl)ccc1-c1csc(N2N=C(c3cccs3)CC2c2ccc3c(c2)OCO3)n1 (stereo not given)	125	125	250	250	125 µg/mL	250	125	250	500	250			
Fc1ccccc1-c1csc(N2N=C(c3cccs3)CC2c2ccc3c(c2)OCO3)n1 (stereo not given)	250	500	250	500	250 µg/mL	500		125	500	500		inactive	
Fc1ccc(-c2csc(N3N=C(c4cccs4)CC3c3cc4c(cc3Br)OCO4)n2)cc1 (stereo not given)	250	500	250	250	inactive	500	250	125		250	inactive		
Cc1ccc(-c2csc(N3N=C(c4cccs4)CC3c3ccc4c(c3)OCO4)n2)cc1 (stereo not given)	125	125	250	125	250 µg/mL	500	250	500	500				inactive
Fc1ccc(-c2csc(N3N=C(c4cccs4)CC3c3ccc4c(c3)OCO4)n2)cc1 (stereo not given)	500	250	500	125	250 µg/mL	250	250	250	500	125			
N#Cc1ccc(-c2csc(N3N=C(c4cccs4)CC3c3ccc4c(c3)OCO4)n2)cc1 (stereo not given)	125	250	125	125	250 µg/mL	500	250	125	125	250			
Fc1cc(-c2csc(N3N=C(c4cccs4)CC3c3ccc4c(c3)OCO4)n2)ccc1Cl (stereo not given)	500	250	500	125	250 µg/mL	500	125	62.5	500	125			
Cc1ccc(-c2csc(N3N=C(c4cccs4)CC3c3cc4c(cc3Br)OCO4)n2)cc1 (stereo not given)	62.5	62.5	62.5	125	250 µg/mL	250	125	62.5	125	125			
